ChEMBL document CHEMBL3045121, “Synthesis of an Antifungal Naphthoquinone Isolated fromRhinacanthus nasutus(Acanthaceae)” (1995)
Converted amounts (≈) assume the structure as drawn.

Tested on: Pyricularia oryzae
Experiment: Inhibition of spore germination of Magnaporthe oryzae
Format: functional
Settings: read-out: ED50 (the source's name)

Compound | EC50
C/C=C(\C)CC/C=C(\C)C(=O)OCC(C)(C)CC1=C(O)C(=O)c2ccccc2C1=O [RHINACANTHIN C] | 0.2 µg/mL (≈ 0.487 µM)
CC1(C)COC2=C(C1)C(=O)C(=O)c1ccccc12 [RHINACANTHONE] | 0.4 µg/mL (≈ 1.65 µM)
